Laboratory results: paper PMC9968088, “Identification and Characterization of Three New Antimicrobial Peptides from the Marine Mollusk Nerita versicolor (Gmelin, 1791)” (International Journal of Molecular Sciences, 2023)
Ends that are not written are not given here.

Tests used:
Conditions in all cases: 24 h
C. albicans = type: cell-based, Candida albicans
Protocol: (§1) The antifungal activity was determined according to the “Clinical and Laboratory Standards Institute” guidelines M27-A3 broth microdilution assay with modifications (turbidimetric detection) [29, 31]. Based on the cell density measurements, the minimal inhibitory concentration (MIC) was derived from a Lambert–Pearson plot [32].

C. albicans biofilm = type: cell-based, Candida albicans
Protocol: (§2) Biofilms were basically formed and analyzed as described previously [31, 32, 33]. In brief, 2.5 × 10^3 yeast cells were seeded in 200 µL RPMI-1640 medium supplemented with L-glutamine in flat-bottomed, 96-well polystyrene microtiter plates (Sarstedt AG & Co. KG, Nümbrecht, Germany) and incubated at 37 °C without agitation for 24 h. The effect of the peptides on the biofilm formation was tested at different concentrations. […] Planktonic cells were removed with the supernatant, and the mature biofilms were washed twice with 200 µL water. Subsequently, the biofilms were stained with 200 µL of a 0.1% (w/v) crystal violet solution for 15 min. The supernatant was removed, and the biofilms were washed twice with 200 µL water to eliminate excess crystal violet. The stained biofilms were air dried for 24 h at 25 °C and finally destained using 200 µL of 30% acetic acid (15 min, 25 °C). The supernatant was transferred to a fresh 96-well plate, and the absorbance at 560 nm was measured using a Tecan infinite M200 microplate reader to quantify the biofilm biomass. The curve was fitted with a nonlinear regression with the dose-response nonlinear Hill equation.

C. auris = type: cell-based, Candida auris
Protocol: as §1

C. auris biofilm = type: cell-based, Candida auris
Protocol: as §2

C. parapsilosis biofilm = type: cell-based, Candida parapsilosis
Protocol: as §2

Pseudomonas aeruginosa = type: cell-based
Protocol: The OD 600 nm of an overnight culture of Pseudomonas aeruginosa was determined and adjusted to 0.1 in Mueller–Hinton broth and, afterwards, diluted 1:4. […] After a 24 h incubation at 37 °C and a 5% CO2 atmosphere, OD 600 nm was determined using a Tecan microplate reader M infinite 200. All tests were performed in triplicate.

C. parapsilosis = type: cell-based, Candida parapsilosis
Protocol: as §1

Which “Antifungal Activity MIC” value (C. albicans) does the source give for KKKPTKK [Nv-p3] here?
The value was “˃100 µg/mL”.

And the “Antibiofilm Activity IC50” value (C. albicans biofilm)?
Its value is 57.5 µg/mL.

And the “Antifungal Activity MIC” value (C. auris)?
Its value is “˃100 µg/mL”.

What about the “Antibiofilm Activity IC50” value (C. auris biofilm) of the same substance?
The value was 57.5 µg/mL.

And the “Antibiofilm Activity IC50” value (C. parapsilosis biofilm)?
Its value is 84.4 µg/mL.

And the MIC (Pseudomonas aeruginosa)?
Its MIC is greater than 100 µg/mL.

What about the “Antifungal Activity MIC” value (C. parapsilosis) of the same substance?
Its value is “˃100 µg/mL”.
